# Columns and labels:
# [1] = In vivo IV/PO pharmacokinetics, dog; design: species or system dog (beagle or mongrel); settings: for clearance / Vd / half-life: beagle or mongrel, plasma, 1 mg/kg; for clearance: dose iv/po mg/kg: 1 1/3, 5 1/5, read-out: CLp; for Vd: dose iv/po mg/kg: 1 1/3, 5 1/5, read-out: Vss; for half-life: dose iv/po mg/kg: 1 1/3, 5 1/5, read-out: elimination t1/2 (converted); for F (%) po: dose iv/po mg/kg: 1 1/3, 5 1/5
# [2] = In vivo IV/PO pharmacokinetics, NHP; settings: NHP (cyno), dose iv/po mg/kg: 1 1/3, 5 1/5; for clearance / Vd / half-life: cynomolgus monkey, plasma, 1 mg/kg; for clearance: read-out: CLp; for Vd: read-out: Vss; for half-life: read-out: elimination t1/2 (converted)
# [3] = target: T1, CYP 1A2 (Homo sapiens, UniProt P05177); test: CYP inhibition 1A2; type: in vitro ADME
# T1 sequence (P05177 1-516): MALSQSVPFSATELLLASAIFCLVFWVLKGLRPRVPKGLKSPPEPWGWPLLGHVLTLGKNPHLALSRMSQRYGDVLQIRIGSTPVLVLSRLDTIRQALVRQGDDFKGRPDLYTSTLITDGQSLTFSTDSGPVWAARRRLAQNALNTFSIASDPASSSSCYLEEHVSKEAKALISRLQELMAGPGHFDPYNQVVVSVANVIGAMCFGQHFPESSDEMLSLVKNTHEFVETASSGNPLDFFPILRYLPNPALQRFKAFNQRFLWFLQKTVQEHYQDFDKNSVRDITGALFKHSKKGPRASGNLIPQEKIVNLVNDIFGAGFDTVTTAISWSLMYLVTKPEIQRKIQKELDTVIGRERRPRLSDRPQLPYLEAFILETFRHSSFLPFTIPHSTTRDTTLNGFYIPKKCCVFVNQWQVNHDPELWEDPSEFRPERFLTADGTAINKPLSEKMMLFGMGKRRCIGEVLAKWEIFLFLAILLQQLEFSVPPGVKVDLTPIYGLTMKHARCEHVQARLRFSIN
# Text: (§1) Table 1 Pharmacology and In Vitro DMPK Profiles of M1 PAMs 1, 3, and 5 | column: 1; 3; 5
# [4] = target: CYP 3A4 (Homo sapiens, UniProt P08684); test: CYP inhibition 3A4; type: in vitro ADME
# Sequence of CYP 3A4 (P08684 whole entry): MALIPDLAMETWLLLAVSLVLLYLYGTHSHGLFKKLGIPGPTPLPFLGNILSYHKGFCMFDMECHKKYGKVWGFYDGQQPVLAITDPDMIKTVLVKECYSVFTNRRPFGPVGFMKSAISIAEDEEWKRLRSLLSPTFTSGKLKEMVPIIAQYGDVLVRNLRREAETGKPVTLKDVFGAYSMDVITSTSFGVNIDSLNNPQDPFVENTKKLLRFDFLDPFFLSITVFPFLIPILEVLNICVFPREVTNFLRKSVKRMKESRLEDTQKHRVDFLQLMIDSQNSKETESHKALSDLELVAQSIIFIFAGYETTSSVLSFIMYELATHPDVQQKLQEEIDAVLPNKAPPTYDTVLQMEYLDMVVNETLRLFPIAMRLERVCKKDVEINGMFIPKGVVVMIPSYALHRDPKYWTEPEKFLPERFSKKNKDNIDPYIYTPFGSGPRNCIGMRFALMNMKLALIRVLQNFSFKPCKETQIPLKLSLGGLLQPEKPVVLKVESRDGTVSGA
# Text: as §1
# [5] = In vivo IV/PO pharmacokinetics, rat; settings: rat (SD), dose iv/po mg/kg: 1 1/3, 3 1/10, 5 1/10; for clearance / Vd / half-life: Sprague-Dawley, plasma, 1 mg/kg; for clearance: read-out: CLp; for Vd: read-out: Vss; for half-life: read-out: elimination t1/2 (converted)
# [6] = tested on: recognition memory; test: Novel object recognition (NOR) test; type: in vivo, rat; settings: PO; for minimum effective dose (MED) in NOR: male Sprague-Dawley rats, 3 given 2 h, 5 given 1 h before exposure, memory assessed 24 h later; for effect on recognition memory in NOR: rats, 3 at 1, 3, 10 mg/kg, 5 at 0.3, 1, 3 mg/kg
# Protocol: Figure 4 Novel object recognition (NOR) test in rats with M1 PAMs 3 and 5. […] Minimum effective dose (MED) is 10 mg/kg. […] Minimum effective dose (MED) is 1 mg/kg. N = 13–18/group of male Sprague-Dawley rats. Analysis of variance (ANOVA) *p < 0.05; **p < 0.01 Dunnett posthoc test.
# Rats were habituated for 10 min for 2 consecutive days in an empty novel object recognition (NOR) arena consisting of dark-colored plexiglass box (40 × 64 × 33 cm3). On day 3 rats were administered vehicle, M1 PAM 3 (1-10 mg/kg, p.o.., 10 mL/kg, n = 13-18), or M 1 PAM 5 (0.3-3 mg/kg, p.o.., 10 mL/kg, n = 16-18) and returned to their home cage for 60 min (M 1 PAM 5) or 2 hr (M1 PAM 3. Rats were then placed in the NOR arena containing two identical objects for 10 min. Following the exposure period, rats were placed back into their home cages for 24 h. The rats were then returned to the arena in which one of the previously exposed (familiar) objects was replaced by a novel object and were video recorded for 5 min while they explored the two objects.
# Time spent exploring each object was scored by an observer blinded to the experimental conditions and the recognition index was calculated as [(time spent exploring novel object) – (time spent exploring familiar object)]/total time exploring objects. […]
# C18, 2.1 x 30 mm, 2.6 um. Gradient conditions: 7% to 95% CH3CN in H2O (0.1% TFA) over 1.6
# [7] = tested on: rM2-5; test: Muscarinic selectivity, rat M2-5; type: cell-based
# [8] = tested on: hM2-5; test: Muscarinic selectivity, human M2-5 calcium mobilization; type: cell-based
# Protocol: Procedures for Biological Experiments
# Calcium mobilization assays:
# All functional cell-based assays were performed in stable Chinese Hamster Ovary (CHO) cell lines constitutively expressing human M5 or human M1 receptors. For full muscarinic selectivity, CHO cells expressing human M3, human M2 plus Gqi5 or human M4 plus Gqi5 were used. Cells were plated at 15,000 cells per 20 µL per well in black 384-well, TC-treated, clear-bottomed plates (Greiner) in Ham’s F12 medium supplemented with 10% FBS and 20 mM HEPES. Cells were incubated overnight at 37 °C under 5% CO2. […] The compound plate, cell plate, and plates containing EC20 and EC80 acetylcholine concentrations were placed in a Hamamatsu FDSS 6000 or 7000 kinetic imaging plate reader equipped to measure Ex480/Em540 fluorescence. […] After 2 seconds of collecting baseline fluorescence, 20 µL of the compound solutions were added to the cell plate. […] The fluorescence signal was collected for a total of 300 seconds. […] Data were imported and analyzed in Dotmatics Informatics software. by normalizing all data in the individual kinetic traces to the initial fluorescence read. The magnitude of each agonist addition was then determined and normalized to the average maximum response. […] The IC50 determined using the EC80 of acetylcholine is the value reported. […]
# [9] = target: GABAB1A (Homo sapiens, UniProt Q9UBS5); test: Eurofins radioligand binding
# Sequence of GABAB1A (Q9UBS5 15-961 limits assumed): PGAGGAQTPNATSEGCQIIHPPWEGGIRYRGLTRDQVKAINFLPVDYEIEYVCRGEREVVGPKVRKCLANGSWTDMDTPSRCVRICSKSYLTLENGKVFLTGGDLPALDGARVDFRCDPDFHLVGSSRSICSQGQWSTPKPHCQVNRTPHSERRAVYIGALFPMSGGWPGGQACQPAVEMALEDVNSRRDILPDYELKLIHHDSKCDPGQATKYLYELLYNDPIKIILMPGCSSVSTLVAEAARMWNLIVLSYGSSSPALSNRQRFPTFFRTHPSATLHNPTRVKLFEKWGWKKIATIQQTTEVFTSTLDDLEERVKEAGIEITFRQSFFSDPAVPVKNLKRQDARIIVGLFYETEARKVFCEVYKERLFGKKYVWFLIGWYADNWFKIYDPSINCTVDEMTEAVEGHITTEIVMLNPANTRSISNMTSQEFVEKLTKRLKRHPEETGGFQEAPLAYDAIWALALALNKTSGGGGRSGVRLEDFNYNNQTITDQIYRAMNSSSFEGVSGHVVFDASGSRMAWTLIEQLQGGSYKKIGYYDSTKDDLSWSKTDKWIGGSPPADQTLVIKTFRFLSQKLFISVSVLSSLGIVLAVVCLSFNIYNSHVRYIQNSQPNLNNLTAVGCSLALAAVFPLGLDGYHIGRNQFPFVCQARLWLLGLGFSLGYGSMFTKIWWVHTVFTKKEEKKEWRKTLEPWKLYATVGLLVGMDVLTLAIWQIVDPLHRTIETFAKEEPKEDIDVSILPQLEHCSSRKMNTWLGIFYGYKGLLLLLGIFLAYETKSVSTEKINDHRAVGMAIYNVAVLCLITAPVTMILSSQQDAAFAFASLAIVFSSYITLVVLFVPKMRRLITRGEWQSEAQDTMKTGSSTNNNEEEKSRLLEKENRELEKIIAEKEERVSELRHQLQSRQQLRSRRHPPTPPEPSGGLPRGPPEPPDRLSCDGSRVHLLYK
# Sequence of GABAB1A (O75899 42-941 partner): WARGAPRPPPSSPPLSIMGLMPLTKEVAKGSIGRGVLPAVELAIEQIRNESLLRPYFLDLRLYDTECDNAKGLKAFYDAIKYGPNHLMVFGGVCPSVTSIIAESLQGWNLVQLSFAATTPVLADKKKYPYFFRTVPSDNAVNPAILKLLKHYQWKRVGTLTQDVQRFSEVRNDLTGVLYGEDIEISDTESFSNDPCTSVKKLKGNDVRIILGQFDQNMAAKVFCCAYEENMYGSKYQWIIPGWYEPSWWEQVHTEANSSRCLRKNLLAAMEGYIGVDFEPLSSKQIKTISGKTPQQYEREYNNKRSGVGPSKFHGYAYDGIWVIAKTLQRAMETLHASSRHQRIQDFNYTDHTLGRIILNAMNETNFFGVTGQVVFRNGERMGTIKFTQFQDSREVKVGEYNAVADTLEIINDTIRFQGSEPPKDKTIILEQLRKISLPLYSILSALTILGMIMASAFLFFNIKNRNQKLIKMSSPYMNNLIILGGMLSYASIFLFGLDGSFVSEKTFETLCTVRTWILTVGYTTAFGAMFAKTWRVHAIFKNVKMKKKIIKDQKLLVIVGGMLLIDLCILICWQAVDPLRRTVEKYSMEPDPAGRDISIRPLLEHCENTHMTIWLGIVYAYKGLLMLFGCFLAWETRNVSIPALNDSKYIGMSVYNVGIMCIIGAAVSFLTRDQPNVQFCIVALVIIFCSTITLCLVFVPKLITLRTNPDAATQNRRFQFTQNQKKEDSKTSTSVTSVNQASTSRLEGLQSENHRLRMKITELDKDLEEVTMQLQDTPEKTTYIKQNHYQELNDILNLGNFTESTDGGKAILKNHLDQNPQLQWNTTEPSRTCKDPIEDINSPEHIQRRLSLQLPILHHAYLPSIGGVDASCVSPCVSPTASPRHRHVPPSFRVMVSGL
# [10] = tested on: GABAA, Muscimol, Central; test: Eurofins radioligand binding; design: species or system Rat
SMILES,clearance [1] [mL/min/kg],Vd [1] [L/kg],half-life [1] [h],F (%) po [1] [%],F (%) po [2] [%],clearance [2] [mL/min/kg],Vd [2] [L/kg],half-life [2] [h],IC50 [3] [µM],IC50 [4] [µM],clearance [5] [mL/min/kg],Vd [5] [L/kg],half-life [5] [h],F (%) po [5] [%],minimum effective dose (MED) in NOR [6] [mg/kg],effect on recognition memory in NOR [6],EC50 [7] [µM],EC50 [8] [µM],inhibition at 10 µM [9] [%],% Inhibition at 10 µM [10] [%]
Cn1cc2c(-c3cc(F)c(CN4Cc5ncccc5C4=O)c(F)c3)cccc2n1 [compound 1],4,2.1,7.5,100,59,3.3,0.9,4.3,14.2,> 30,3,0.67,3,93,,,,,,
[2H]C1([2H])c2ncccc2C(=O)N1Cc1c(F)cc(-c2cccc3nn(C)cc23)cc1F [compound 3],,,,,,,,,> 30,> 30,5.5,1.4,3,100,10,dose-dependently enhanced the recognition memory,> 30,> 30,,
[2H]C1([2H])c2ncccc2C(=O)N1Cc1c(F)cc(-c2cccc3nn(C([2H])([2H])[2H])cc23)cc1F [compound 5],2.6,2,10,85,64,4,1.1,4.6,> 30,28.6,4.8,1.1,3.6,100,1,dose-dependently enhanced recognition memory,> 30,> 30,-5,0

# Source: PMC12006963, “Application of Deuterium in an M1 Positive Allosteric Modulator Back-Up Program: The Discovery of VU6045422” (ACS Chemical Neuroscience, 2025)
